This assay has as its target T1, A1 adenosine receptor (Mesocricetus auratus, UniProt A0A1U8BVR4).
T1 construct: A1 adenosine receptor sites on the membranes of DDT cells; endogenous in cells; host or cells: DDT cells (DDT1, hamster vas deferens smooth muscle cell line), membrane preparation
T1 sequence (A0A1U8BVR4 1-326): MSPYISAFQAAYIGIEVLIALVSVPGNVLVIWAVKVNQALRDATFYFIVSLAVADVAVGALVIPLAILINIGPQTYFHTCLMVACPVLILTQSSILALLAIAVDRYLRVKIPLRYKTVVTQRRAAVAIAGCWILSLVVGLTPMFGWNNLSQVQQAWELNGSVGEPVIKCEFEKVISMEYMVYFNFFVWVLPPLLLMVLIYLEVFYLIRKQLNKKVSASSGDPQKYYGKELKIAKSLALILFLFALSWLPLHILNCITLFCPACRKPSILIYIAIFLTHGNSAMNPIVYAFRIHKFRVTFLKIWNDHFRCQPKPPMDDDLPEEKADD
The assay can be described thus: Competitive radioligand binding assay, A1 binding affinity, DDT1 cell membranes. Also on record: species or system hamster. To be noted: membranes of DDT cells, tritiated radioligand (3H-CPA) 1.5 nM, 23° C. 90 minutes. How it is done: DDT cells (hamster vas deferens smooth muscle cell line) were grown as monolayers in petri dishes using Dulbecco's Modified Eagle's Medium (DMEM) containing 2.5 μg mL^−1 amphotericin B, 100 U mL^−1 penicillin G, 0.1 mg mL^−1 streptomycin sulfate and 5% fetal bovine serum in a humidified atmosphere of 95% air and 5% CO2. Cells were subcultured twice weekly by dispersion in Hank's Balanced Salt Solution (HBSS) without the divalent cations and containing 1 mM EDTA. The cells were then seeded in growth medium at a density of 1.2×10^5 cells per plate and experiments were performed 4 days later at approximately one day preconfluence.
Attached cells were washed twice with HBSS (2×10 mL), scraped free of the plate with the aid of a rubber policeman in 5 mL of 50 mM Tris-HCl buffer pH 7.4 at 4° C. and the suspension was homogenized for 10 s. The suspension was then centrifuged at 27,000×g for 10 min. The pellet was resuspended in homogenization buffer by vortexing and centrifuged again as described above. The final pellet was resuspended in 1 vol of 50 mM Tris-HCl buffer pH 7.4 containing 5 mM MgCl2 for A1 adenosine receptor assays. For the [^35S]GTPγS binding assay the final pellet was resuspended in 50 mM Tris-HCl pH 7.4 containing 5 mM MgCl2, 100 mM NaCl and 1 mM dithiothreitol. This membrane suspension was then placed in liquid nitrogen for 10 min and stored at −80° C. Aliquots of the membrane suspension were later thawed and used for assays. The protein content was determined with a Bradford™ Assay Kit using bovine serum albumin as standard.
Briefly, 50-70 ug of membrane protein were incubated in a mixture containing 2U/ml adenosine deaminase and 10 μM GTP-γS in 50 mM Tris-HCl buffer, pH 7.4, with 1 mM EDTA in glass tubes. Stock solutions of the compounds of the invention were serially diluted (10^−10M to 10^−4M) in Tris buffer and added to the incubation mixture. […] After incubation at 23° C. 90 minutes, the reaction was stopped by filtration on a Brandel MR24 cell harvester and washing with ice-cold Tris-EDTA buffer (three times, approximate volume 10 ml/wash) over Whatman GF/B filters (presoaked for 1 h in 0.3% polyethylenimine to reduce non-specific binding). Filters were transferred to scintillation vials and 5 ml of Scintisafe (VWR, Brisbane, Calif.) was added. The amount of radioactivity retained on the filters was determined by liquid scintillation spectrometry.
For the molecule `CCNC(=O)[C@H]1O[C@@H](n2cnc3c(N[C@@H]4CCOC4)nc(-n4cc(-c5ccc6ccccc6n5)cn4)nc32)[C@H](O)[C@@H]1O`, the inhibition constant (Ki) (usually the equilibrium dissociation constant of an inhibitor or competing ligand from its target) came to 74 nM.
`Cc1cc(C)n(-c2nc(NC3CCCC3)c3ncn(C4O[C@H](CO)[C@@H](O)[C@H]4O)c3n2)n1` (some centres unmarked) [listing 1 of 2 here] gave a Ki of 134 nM.
For `CCNC(=O)[C@H]1O[C@@H](n2cnc3c(N[C@@H]4CCOC4)nc(-n4cc(-c5ccncc5)cn4)nc32)[C@H](O)[C@@H]1O` the value was 1060 nM; for `Cc1ccc(-c2cnn(-c3nc(N[C@@H]4CCOC4)c4ncn([C@@H]5O[C@H](C(=O)O)[C@@H](O)[C@H]5O)c4n3)c2)cc1`, 121 nM.
Under `Cc1cc(C)n(-c2nc(NC3CCCC3)c3ncn(C4O[C@H](CO)[C@@H](O)[C@H]4O)c3n2)n1` (some centres unmarked) [listing 2 of 2 here] stands 94 nM; under `CCOC(=O)c1cnn(-c2nc(NC3CCCC3)c3ncn([C@@H]4O[C@H](CO)[C@@H](O)[C@H]4O)c3n2)c1` (single isomer, unassigned) [XXV], 0.9 nM.
For `O=C(NCc1cc(F)cc(C(F)(F)F)c1)c1cnn(-c2nc(N[C@@H]3CCOC3)c3ncn([C@@H]4O[C@H](CO)C(O)C4O)c3n2)c1` (stereo in doubt) [XXI, (1-{6-[((3R)oxolan-3-yl)amino]-9-[(3S,2R,4R,5R)-3,4-dihydroxy-5-(hydroxymethyl)oxolan-2-yl]purin-2-yl}pyrazol-4-yl)-N-{[5-fluoro-3-(trifluoromethyl)phenyl]methyl}carboxamide] the value was 56 nM; for `CCOC(=O)c1cnn(-c2nc(NC3CCCC3)c3ncn([C@@H]4O[C@H](CO)[C@@H](O)[C@H]4O)c3n2)c1` [III, ethyl 1-{9-[(4S,3R,5R)-3,4-dihydroxy-5-(hydroxymethyl)oxolan-2-yl]-6-(cyclopentylamino)purin-2-yl}pyrazole-4-carboxylate], 36 nM; for `CCNC(=O)[C@H]1O[C@@H](n2cnc3c(NC4CCOC4)nc(-n4cc(-c5ccc(C)cc5)cn4)nc32)[C@H](O)[C@@H]1O` (some centres unmarked) [I], 2000 nM.
The molecule `CCNC(=O)c1cnn(-c2nc(N[C@@H]3CCOC3)c3ncn([C@@H]4O[C@H](CO)[C@@H](O)[C@H]4O)c3n2)c1` [XI, (1-{6-[((3R)oxolan-3-yl)amino]-9-[(4S,2R,3R,5R)-3,4-dihydroxy-5-(hydroxymethyl)oxolan-2-yl]purin-2-yl}pyrazol-4-yl)-N-ethylcarboxamide] displayed a Ki of 10 nM.
For `CCOC(=O)c1cnn(-c2nc(NCc3ccccc3)c3ncn([C@@H]4O[C@H](CO)[C@@H](O)[C@H]4O)c3n2)c1` [XII, ethyl 1-{9-[(4S,2R,3R,5R)-3,4-dihydroxy-5-(hydroxymethyl)oxolan-2-yl]-6-[benzylamino]purin-2-yl}pyrazole-4-carboxylate] the value was 1720 nM; for `CCCNC(=O)c1cnn(-c2nc(N[C@@H]3CCOC3)c3ncn([C@@H]4O[C@H](CO)[C@@H](O)[C@H]4O)c3n2)c1` [XIII, (1-{6-[((3R)oxolan-3-yl)amino]-9-[(4S,2R,3R,5R)-3,4-dihydroxy-5-(hydroxymethyl)oxolan-2-yl]purin-2-yl}pyrazol-4-yl)-N-propylcarboxamide], 10 nM.
`CCCNC(=O)c1cnn(-c2nc(NCc3ccccc3)c3ncn([C@@H]4O[C@H](CO)[C@@H](O)[C@H]4O)c3n2)c1` [XIV, (1-{9-[(4S,2R,3R,5R)-3,4-dihydroxy-5-(hydroxymethyl)oxolan-2-yl]-6-[benzylamino]purin-2-yl}pyrazol-4-yl)-N-propylcarboxamide] gave a Ki of 1090 nM.
For `O=C(NCc1ccc(F)cc1)c1cnn(-c2nc(N[C@@H]3CCOC3)c3ncn([C@@H]4O[C@H](CO)[C@@H](O)[C@H]4O)c3n2)c1` [XIX, (1-{6-[((3R)oxolan-3-yl)amino]-9-[(4S,2R,3R,5R)-3,4-dihydroxy-5-(hydroxymethyl)oxolan-2-yl]purin-2-yl}pyrazol-4-yl)-N-[(4-fluorophenyl)methyl] carboxamide] the value was 43 nM; for `CCNC(=O)c1cnn(-c2nc(NCc3ccccc3)c3ncn([C@@H]4O[C@H](CO)[C@@H](O)[C@H]4O)c3n2)c1` [XV, (1-{9-[(4S,2R,3R,5R)-3,4-dihydroxy-5-(hydroxymethyl)oxolan-2-yl]-6-[benzylamino]purin-2-yl}pyrazol-4-yl)-N-ethylcarboxamide], 1530 nM.
Under `CNC(=O)c1cnn(-c2nc(NCc3ccccc3)c3ncn([C@@H]4O[C@H](CO)[C@@H](O)[C@H]4O)c3n2)c1` [XVI, (1-{9-[(4S,2R,3R,5R)-3,4-dihydroxy-5-(hydroxymethyl)oxolan-2-yl]-6-[benzylamino]purin-2-yl}pyrazol-4-yl)-N-methylcarboxamide] stands 1790 nM; under `O=C(O)c1ccc(-c2cnn(-c3nc(N[C@@H]4CCOC4)c4ncn(C5OC(CO)C(O)C5O)c4n3)c2)nc1` (stereo partly drawn) [XVII, 6-(1-{6-[((3R)oxolan-3-yl)amino]-9-[3,4-dihydroxy-5-(hydroxymethyl)oxolan-2-yl]purin-2-yl}pyrazol-4-yl)pyridine-3-carboxylic acid], 64 nM.
Under `O=C(NCc1ccc(Cl)cc1)c1cnn(-c2nc(N[C@@H]3CCOC3)c3ncn([C@@H]4O[C@H](CO)[C@@H](O)[C@H]4O)c3n2)c1` [XVIII, (1-{6-[((3R)oxolan-3-yl)amino]-9-[(4S,2R,3R,5R)-3,4-dihydroxy-5-(hydroxymethyl)oxolan-2-yl]purin-2-yl}pyrazol-4-yl)-N-[(4-chlorophenyl)methyl]carboxamide] stands 27 nM; under `O=C(NCc1ccccc1)c1cnn(-c2nc(N[C@@H]3CCOC3)c3ncn([C@@H]4O[C@H](CO)[C@@H](O)[C@H]4O)c3n2)c1` [XX, (1-{6-[((3R)oxolan-3-yl)amino]-9-[(4S,2R,3R,5R)-3,4-dihydroxy-5-(hydroxymethyl)oxolan-2-yl]purin-2-yl}pyrazol-4-yl)-N-benzylcarboxamide], 1 nM.
Regarding `COC(=O)c1ccc(CNC(=O)c2cnn(-c3nc(N[C@@H]4CCOC4)c4ncn([C@@H]5O[C@H](CO)[C@@H](O)[C@H]5O)c4n3)c2)cc1` [XXIX, methyl 4-{[(1-{6-[((3R)oxolan-3-yl)amino]-9-[(4S,2R,3R,5R)-3,4-dihydroxy-5-(hydroxymethyl)oxolan-2-yl]purin-2-yl}pyrazol-4-yl)carbonylamino]methyl}benzoate], the Ki amounted to 6 nM.
Under `O=C(O)c1ccc(CNC(=O)c2cnn(-c3nc(N[C@@H]4CCOC4)c4ncn([C@@H]5O[C@H](CO)[C@@H](O)[C@H]5O)c4n3)c2)cc1` [XXX, 4-{[(1-{6-[((3R)oxolan-3-yl)amino]-9-[(4S,2R,3R,5R)-3,4-dihydroxy-5-(hydroxymethyl)oxolan-2-yl]purin-2-yl}pyrazol-4-yl)carbonylamino]methyl}benzoic acid] stands 8 nM; under `O=C(O)c1cnn(-c2nc(NC3CCCC3)c3ncn([C@@H]4O[C@H](CO)[C@@H](O)[C@H]4O)c3n2)c1` [XXXI, 1-{9-[(4S,3R,5R)-3,4-dihydroxy-5-(hydroxymethyl)oxolan-2-yl]-6-(cyclopentylamino)purin-2-yl}pyrazole-4-carboxylic acid], 8 nM.
Under `NC(=O)c1cnn(-c2nc(NC3CCCC3)c3ncn([C@@H]4O[C@H](CO)[C@@H](O)[C@H]4O)c3n2)c1` [XXXII, 1-(9-[(4S,3R,5R)-3,4-dihydroxy-5-(hydroxymethyl)oxolan-2-yl]-6-(cyclopentylamino)purin-2-yl}pyrazole-4-carboxamide] stands 0.59 nM.

These data come from US7514417B2 (CV Therapeutics, Inc., priority 2005, dated 2009).
